Measured values as given in patent EP0880968A1, “Pharmaceutical compositions of peptides having low solubility in physiological medium” (Applied Research Systems ARS Holding N.V., priority 1997, dated 1998).
In brackets after ≈: the same amount, converted by molar mass. Several values for one entry are separate records, joined by “and”; a condition that tells them apart may be missing. Equal entries are not always repeated. Where two headings read alike, the source gives them in different places. Square brackets hold non-standard residues; d marks the D form. Peptide text beside a SMILES is read from it. * marks the point of attachment. dPhe(4-Cl) = N[C@H](Cc1ccc(Cl)cc1)C(=O)O; d2Nal = N[C@H](Cc1ccc2ccccc2c1)C(=O)O; Lys(iPr) = CC(C)NCCCC[C@H](N)C(=O)O; d3Pal = N[C@H](Cc1cccnc1)C(=O)O; Nicotinoyl = O=C(c1cccnc1)*

Experiments:
[1] = Stability of nicotinamide/antide formulations (chemical compatibility); type: physicochemical; conditions: pH 5
Protocol: (§1) RP-HPLC gradient elution, C-18 (e.g. Vydac 218 TP54, 250 x 4.6 mm) column. UV detection at 215 nm, injection volume 15 µl mobile phase A: pH 4.5 phosphate buffer (0.1M), mobile phase B: acetonitrile, flow rate = 1.0 ml/min, runtime = 23 min. External standard solution concentrations of 100 µg/ml were injected during analysis. The gradient was: 77% A, 23% B to 52% A, 48% B […].
Four formulations of antide and nicotinamide at different concentration ratios and adjusted to pH 5 were prepared and tested over 3 months at +40°C, +25°C and +4°C.
Chromatographic traces of antide were identical to those of the standard, with the addition of the early eluting nicotinamide peak which appeared at a retention tune of 3.2 minutes.

[2] = Solubilisation studies (visual appearance and RP-HPLC solubility after equilibration overnight at 25°C); type: physicochemical
Protocol: as §1
Solubilisation studies were carried out to study the effect of: • pH (solutions were acidified with either acetic acid or hydrochloric acid) • hydrotropic agents (nicotinamide, sodium saccharin, sodium salicylate, sodium benzoate, histidine hydrochloride, thiamine hydrochloride, phenylalanine).
Saline used in these studies corresponds to 0.9% sodium chloride solution.
Following the visual analysis, a number of solutions were selected for further quantitative determination of the solubility by filtration (0.45 µm filters) and appropriate dilution using the RP-HPLC method described above.

CC(=O)N[C@H](Cc1ccc2ccccc2c1)C(=O)N[C@H](Cc1ccc(Cl)cc1)C(=O)N[C@H](Cc1cccnc1)C(=O)N[C@@H](CO)C(=O)N[C@@H](CCCCNC(=O)c1cccnc1)C(=O)N[C@H](CCCCNC(=O)c1cccnc1)C(=O)N[C@@H](CC(C)C)C(=O)N[C@@H](CCCCNC(C)C)C(=O)N1CCC[C@H]1C(=O)N[C@H](C)C(N)=O [antide] (Ac-[d2Nal][dPhe(4-Cl)][d3Pal]SK(Nicotinoyl)[dK](Nicotinoyl)L[Lys(iPr)]P[dA]-NH2)
Stability of nicotinamide/antide formulations ([1]; antide 1 mg/ml, nicotinamide 5%, +4°C, 4W): 0.9 | Stability of nicotinamide/antide formulations ([1]; antide 1 mg/ml, nicotinamide 5%, +4°C, 12W): 1.0 | Stability of nicotinamide/antide formulations ([1]; antide 1 mg/ml, nicotinamide 5%, +25°C, 1W): 0.9 | Stability of nicotinamide/antide formulations ([1]; antide 1 mg/ml, nicotinamide 5%, +25°C, 4W): 0.9 | Stability of nicotinamide/antide formulations ([1]; antide 1 mg/ml, nicotinamide 5%, +25°C, 12W): 1.0 | Stability of nicotinamide/antide formulations ([1]; antide 1 mg/ml, nicotinamide 5%, +40°C, 1W): 1.0 | Stability of nicotinamide/antide formulations ([1]; antide 1 mg/ml, nicotinamide 5%, +40°C, 4W): 0.9 | Stability of nicotinamide/antide formulations ([1]; antide 1 mg/ml, nicotinamide 5%, +40°C, 12W): 1.0 | Stability of nicotinamide/antide formulations ([1]; antide 1 mg/ml, nicotinamide 5%, T=0): 1.0 | Stability of nicotinamide/antide formulations ([1]; antide 1 mg/ml, nicotinamide 25%, +4°C, 4W): 1.0 | Stability of nicotinamide/antide formulations ([1]; antide 1 mg/ml, nicotinamide 25%, +4°C, 12W): 1.1 | Stability of nicotinamide/antide formulations ([1]; antide 1 mg/ml, nicotinamide 25%, +25°C, 1W): 1.0 | Stability of nicotinamide/antide formulations ([1]; antide 1 mg/ml, nicotinamide 25%, +25°C, 4W): 1.0 | Stability of nicotinamide/antide formulations ([1]; antide 1 mg/ml, nicotinamide 25%, +25°C, 12W): 1.1 | Stability of nicotinamide/antide formulations ([1]; antide 1 mg/ml, nicotinamide 25%, +40°C, 1W): 1.0 | Stability of nicotinamide/antide formulations ([1]; antide 1 mg/ml, nicotinamide 25%, +40°C, 4W): 1.0 | Stability of nicotinamide/antide formulations ([1]; antide 1 mg/ml, nicotinamide 25%, +40°C, 12W): 1.1 | Stability of nicotinamide/antide formulations ([1]; antide 1 mg/ml, nicotinamide 25%, T=0): 1.0 | Stability of nicotinamide/antide formulations ([1]; antide 10 mg/ml, nicotinamide 5%, +4°C, 1W): 10.3 | Stability of nicotinamide/antide formulations ([1]; antide 10 mg/ml, nicotinamide 5%, +4°C, 4W): 10.0 | Stability of nicotinamide/antide formulations ([1]; antide 10 mg/ml, nicotinamide 5%, +4°C, 12W): 10.5 | Stability of nicotinamide/antide formulations ([1]; antide 10 mg/ml, nicotinamide 5%, +25°C, 1W): increased viscosity with precipitate formation and gel | Stability of nicotinamide/antide formulations ([1]; antide 10 mg/ml, nicotinamide 5%, +25°C, 4W): gel | Stability of nicotinamide/antide formulations ([1]; antide 10 mg/ml, nicotinamide 5%, +25°C, 12W): gel | Stability of nicotinamide/antide formulations ([1]; antide 10 mg/ml, nicotinamide 5%, +40°C, 1W): increased viscosity with precipitate formation and gel | Stability of nicotinamide/antide formulations ([1]; antide 10 mg/ml, nicotinamide 5%, +40°C, 4W): gel | Stability of nicotinamide/antide formulations ([1]; antide 10 mg/ml, nicotinamide 5%, +40°C, 12W): gel | Stability of nicotinamide/antide formulations ([1]; antide 10 mg/ml, nicotinamide 5%, T=0): 9.7 | Stability of nicotinamide/antide formulations ([1]; antide 10 mg/ml, nicotinamide 25%, +4°C, 4W): 10.1 | Stability of nicotinamide/antide formulations ([1]; antide 10 mg/ml, nicotinamide 25%, +25°C, 1W): 9.8 | Stability of nicotinamide/antide formulations ([1]; antide 10 mg/ml, nicotinamide 25%, +25°C, 4W): 9.5 | Stability of nicotinamide/antide formulations ([1]; antide 10 mg/ml, nicotinamide 25%, +25°C, 12W): 11.1 | Stability of nicotinamide/antide formulations ([1]; antide 10 mg/ml, nicotinamide 25%, +40°C, 1W): 10.7 | Stability of nicotinamide/antide formulations ([1]; antide 10 mg/ml, nicotinamide 25%, +40°C, 4W): 9.4 | Stability of nicotinamide/antide formulations ([1]; antide 10 mg/ml, nicotinamide 25%, +40°C, 12W): 10.2 | Stability of nicotinamide/antide formulations ([1]; antide 10 mg/ml, nicotinamide 25%, T=0): 9.8 | solubility thermodynamic ([2]; 0.9% NaCl solution (saline), saline or isotonic, 0.9% NaCl solution): 25 µg/mL (≈ 15.7 µM) | Solubility ([2]; 1% acetic acid in saline, 5 mg/ml antide added, pH 3.12, not quantified, read-out: drug solubility): < 5000 µg/mL | solubility thermodynamic ([2]; WFI (water for injection), pH 4.4, water, WFI, nominal amount added 10 mg/ml, pH 4.40): 8130 µg/mL (≈ 5110 µM) | Solubility ([2]; WFI (water for injection), water, WFI, nominal amount added 1 mg/ml, pH 5.00, read-out: Solubility): ≥ 1000 µg/mL | Solubility ([2]; WFI, nominal amount added 10 mg/ml, pH 4.40): 8100 µg/mL (≈ 5090 µM) | solubility thermodynamic ([2]; phosphate buffered saline, aqueous buffer): 16 µg/mL (≈ 10.1 µM) | Solubility ([2]; saline + 15% nicotinamide, nominal amount added 5 mg/ml, pH 5.79 (Table 9)): 3300 µg/mL and 3320 µg/mL | Solubility ([2]; saline + 15% sodium benzoate, nominal amount added 5 mg/ml, pH 6.69): 72 µg/mL | Solubility ([2]; saline + 15% sodium salicylate, nominal amount added 5 mg/ml, pH 5.81): 210 µg/mL | Solubility ([2]; saline + 15% thiamine hydrochloride, nominal amount added 5 mg/ml, pH 3.30): 3000 µg/mL and 3010 µg/mL | Solubility ([2]; saline + histidine hydrochloride (5%), nominal amount added 5 mg/ml, pH 4.17): 76 µg/mL | Solubility ([2]; saline + nicotinamide 10%, nominal amount added 5 mg/ml, pH 5.68): 1400 µg/mL | Solubility ([2]; saline + nicotinamide 15%, nominal amount added 5 mg/ml, pH 5.76 (Table 10)): 3230 µg/mL | Solubility ([2]; saline + nicotinamide 20%, nominal amount added 10 mg/ml, pH 5.64): 8500 µg/mL and 8490 µg/mL | Solubility ([2]; saline + phenylalanine (1.7%), nominal amount added 5 mg/ml, pH 4.59): 66 µg/mL | solubility thermodynamic ([2]; saline acidified with acetic acid, pH 3.01, saline or isotonic, nominal amount added 10 mg/ml, pH 3.01): 2200 µg/mL (≈ 1380 µM) | Solubility ([2]; saline acidified with acetic acid, nominal amount added 10 mg/ml, pH 3.01): 2230 µg/mL (≈ 1400 µM) | solubility thermodynamic ([2]; saline, pH 5.04, saline or isotonic, nominal amount added 1 mg/ml, natural pH 5.04): 25 µg/mL (≈ 15.7 µM)
